# In US20070270612A1, “Biocidal azole emulsion concentrates having high active ingredient content” (priority 2006, published 2007):
# Like-named read-outs stand apart in the source and are kept apart here.
# Tests used:
# [1] = Solubility of biocides in solvents; format: physicochemical
# Excerpt: For example, Arch Wood Protection recently received US EPA registration on an end use wood preservative product having 5.0% tebuconazole, 5.0% propiconazole, 0.5% imidacloprid, and 89.5% inert ingredients (surfactants, etc). This is near the solubility limit of the carrier, that is, very little additional biocidal azole can be dissolved in that material. This is about 20 parts biocidal azoles per part of imidacloprid. Other commercially importants formulations include tebuconazole and imidacloprid in a ratio of about 50 parts to 1 part by weight, and 4 parts biocidal azoles (tebuconazole and propiconazole) per part by weight of permethin. In contrast, an exemplary formulation of the present invention comprises 15.0% tebuconazole (range 1-35%, preferably 5-20%), 15.0% propiconazole (range 1-40%, preferably 5-20%), 1.5% imidacloprid (range 0.2%-3%), 5.0% of an emulsifier blend (range 1-15%), 60.0% of a basic solvent such as N,N-dimethyldecanamide/octanamide (range 0.0-65%), and 3.5% N-methyl pyrrolidone (range 0.0-50%). The alkyl pyrrolidones can be included in component (A) compounds if an organic biocide is particularly difficult to dissolve.
# Other biocides which could be used in this invention include those in the azole family and other organic molecules in general (fungicides and insecticides) that are applicable to wood preservation. These could be combined in any number of mixtures and variations, including two-ways, four-ways, etc. or alone. A large number of surfactants that can be used as emulsifier components to make an EC. It really comes down to the formulator's preference. Similarly, there are many other solvents that could be used to dissolve these active ingredients and make an EC or microemulsion from an emulsion concentrate (MEC). When the compositions are diluted and undergo sufficient shear to form a microemulsion, the resultant microemulsion is stable at all reasonably useful levels of water dilution and remain thermodynamically stable and clear, opalescent, or only slightly cloudy. […]
# [2] = Particle size distribution on wet ball milling with 0.3 mm zirconia; format: physicochemical
# Excerpt: Milling tebuconazole with 0.3 mm zirconium oxide milling material. Tebuconazole is a preferred organic biocide for use in wood and also for selected foliar applications and for incorporation into biocidal materials. […] Exemplary other preferred biocides from the same class of material include cyproconazole, tetraconazole, difenoconazole, diniconazole, penconazole, imibenconazole, propiconazole, azaconazole, and epoxyconazole. […] A CB Mills Vertical Mill Model: L-1 mill was used in this experiment. […] The original d50 (the diameter at which 50% by weight of the particles have an effective diameter equal to or less than the d50) of the tebuconazole, prior to wet milling, was about 25 microns, with about a fourth of the tebuconazole in particles […] having a particle size less than 4 microns. The milling media was 0.3-0.5 mm Yttrium doped Zirconium Oxide. The density of the yttrium-doped zirconium oxide is ˜6.0 g/cm^3. […] Generally, for injecting into wood, we prefer less than 2% by weight of particles have a diameter greater than 1 micron, more preferably 0.7 microns. The residual large particles can be separated from the slurry by centrifugation and then be sent back to the mill for additional milling.
smiles,measurement,setting,value
O=[N+]([O-])NC1=NCCN1Cc1ccc(Cl)nc1 [Imidacloprid],solubility in most every EPA approved solvent,[1],sparingly soluble
CC(C)(C)C(O)(CCc1ccc(Cl)cc1)Cn1cncn1 (stereo not drawn) [Tebuconazole],"solubility in N,N-dimethylcapramide",[1],very soluble
same,Volume % With Diameter 1-10 μm,[2]; milling time 0 mins,4 Volume %
same,Volume % With Diameter 10-25 μm,[2]; milling time 0 mins,42.2 Volume %
same,Volume % With Diameter 25-50 μm,[2]; milling time 0 mins,27.2 Volume %
same,Volume % With Diameter >50 μm,[2]; milling time 0 mins,26.6 Volume %
same,Volume % With Diameter 0.2-1 μm,[2]; milling time 150 mins,20.7 Volume %
same,Volume % With Diameter 1-10 μm,[2]; milling time 150 mins,4.2 Volume %
same,Volume % With Diameter 10-25 μm,[2]; milling time 150 mins,3.6 Volume %
same,Volume % With Diameter 25-50 μm,[2]; milling time 150 mins,0 Volume %
same,Volume % With Diameter <0.2 μm,[2]; milling time 150 mins,71.5 Volume %
same,Volume % With Diameter >50 μm,[2]; milling time 150 mins,0 Volume %
same,d50,[2]; prior to wet milling,about 25 microns
same,weight % having a particle size less than 4 microns,[2]; prior to wet milling,about 4 % by weight
CCCC1COC(Cn2cncn2)(c2ccc(Cl)cc2Cl)O1 (stereo not drawn) [propiconazole],"solubility in N,N-dimethylcapramide","[1]; solvent N,N-DMC",very soluble
